These results are taken from patent US20200131669A1, “CYCLIC PEPTIDE COMPOUND HAVING HIGH MEMBRANE PERMEABILITY, AND LIBRARY CONTAINING SAME” (Chugai Seiyaku Kabushiki Kaisha, priority 2017, published 2020).

The data set is described as follows: Caco-2 membrane permeability, improved method as used in the following Examples (96-well, 20 to 24 h preincubation). It counts as in vitro ADME. The following applies: human. A digest of the protocol:
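Papp (cm/sec) was derived from LC/MS of basal samples collected 180 min after apical dosing in FaSSIF/HBSS pH 6.0 with 1% DMSO, against a basal HBSS pH 7.4 receiver containing 4% BSA. Three-week Caco-2 cultures were first preincubated with compound in DMEM+FaSSIF at 37 °C for 20–24 h.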
For orientation: Caco-2 monolayers are a common model of the intestinal barrier.

Structures are written as SMILES. Like-named read-outs stand apart in the source and are kept apart here. Positions of bridges follow the written chain, without caps; N, C: chain ends. Non-standard residues stand in square brackets, D forms with d. Residues, ends and D or L forms follow the SMILES beside them. *: point of attachment. Phe(4-CF3) = N[C@@H](Cc1ccc(C(F)(F)F)cc1)C(=O)O; NMePhe(3-Cl) = CN[C@@H](Cc1cccc(Cl)c1)C(=O)O; NMePhe(4-Cl) = CN[C@@H](Cc1ccc(Cl)cc1)C(=O)O; NMehPhe = CN[C@@H](CCc1ccccc1)C(=O)O; Hyp = O=C(O)[C@@H]1C[C@@H](O)CN1; NMeF = CN[C@@H](Cc1ccccc1)C(=O)O; NMeI = CC[C@H](C)[C@H](NC)C(=O)O; Butyl(3-Me,3-OH) = CC(C)(O)CC*; NMeD = CN[C@@H](CC(=O)O)C(=O)O; NMeL = CN[C@@H](CC(C)C)C(=O)O; NMeV = CN[C@H](C(=O)O)C(C)C; NMeA = CN[C@@H](C)C(=O)O; Piperidide = C1CCN(*)CC1; dNMeA = CN[C@H](C)C(=O)O; NBuGly = CCCCNCC(=O)O; NPrGly = CCCNCC(=O)O; Sar = CNCC(=O)O; tBu = CC(C)(C)*; CHF2 = FC(F)*

Where the note is “Caco-2, Caco-2”, `CC(C)C[C@@H]1NC(=O)[C@H](C)N(C)C(=O)C[C@@H](C(=O)N2CCCCC2)NC(=O)[C@H](CC(C)C)N(C)C(=O)CN(C)C(=O)[C@H]([C@@H](C)O)NC(=O)[C@H](CC(C)C)N(C)C(=O)[C@H](CCc2ccccc2)N(C)C(=O)[C@H](COCCC(C)(C)O)NC(=O)[C@H](Cc2ccccc2)N(C)C(=O)[C@H](CC(C)C)N(C)C1=O` [pd437] ([NMeA]L[NMeL][NMeF]S(Butyl(3-Me,3-OH))[NMehPhe][NMeL]T[Sar][NMeL]D-Piperidide; lactam N-11) gave a Papp A→B at 180 min of 1.3 ×10⁻⁶ cm/s.

With `CCCN1CC(=O)N(C)[C@@H](CC(C)C)C(=O)N[C@@H](COC(C)(C)C)C(=O)N[C@H](C(=O)N2CCCCC2)CC(=O)N(C)[C@@H](CC(C)C)C(=O)N[C@@H](Cc2ccc(C(F)(F)F)cc2)C(=O)N(C)[C@@H](CC(C)C)C(=O)N(C)[C@@H]([C@@H](C)CC)C(=O)N[C@@H]([C@@H](C)O)C1=O` [pd152] ([NMeL][Phe(4-CF3)][NMeL][NMeI]T[NPrGly][NMeL]S(tBu)D-Piperidide; lactam N-9), the Papp A→B at 180 min (Caco-2, Caco-2 (cm/sec)) came out at 1.2 ×10⁻⁶ cm/s.

For `CCCCN1CC(=O)N(C)[C@@H](C)C(=O)N[C@H](C(=O)N2CCCCC2)CC(=O)N(C)[C@@H](C)C(=O)N[C@@H](Cc2ccc(OC(F)F)cc2)C(=O)N(C)[C@@H](CC(C)C)C(=O)N(C)[C@@H](Cc2ccccc2)C(=O)N[C@@H](CC(C)C)C(=O)N(C)[C@@H](CC(C)C)C(=O)N(C)[C@@H]([C@@H](C)CC)C(=O)N[C@@H]([C@@H](C)O)C1=O` [pd479] ([NMeA]Y(CHF2)[NMeL][NMeF]L[NMeL][NMeI]T[NBuGly][NMeA]D-Piperidide; lactam N-11), the Papp A→B at 180 min (Caco-2, Caco-2) came out at 1 ×10⁻⁶ cm/s.

In the case of `CC(C)C[C@@H]1NC(=O)[C@H](Cc2ccc(Cl)cc2)N(C)C(=O)[C@H](CC(C)C)N(C)C(=O)[C@H](C(C)C)NC(=O)[C@H](C)N(C)C(=O)C[C@@H](C(=O)N2CCCCC2)NC(=O)[C@H](CC(C)C)N(C)C(=O)CN(C)C(=O)[C@H]([C@@H](C)O)NC(=O)[C@H](CC(C)C)N(C)C(=O)[C@H](Cc2ccccc2)N(C)C1=O` [pd174] ([NMeA]V[NMeL][NMePhe(4-Cl)]L[NMeF][NMeL]T[Sar][NMeL]D-Piperidide; lactam N-11), the Papp A→B at 180 min (Caco-2, improved method, preincubation 20 to 24 hours, Papp, sample at 180 minutes, read-out: Caco-2) is 1.3 ×10⁻⁶ cm/s.

Where the note is “Caco-2, Caco-2”, `CCO[C@@H]1C[C@H]2C(=O)N(C)[C@@H](CC(C)C)C(=O)N[C@@H]([C@@H](C)CC)C(=O)N(C)[C@@H](CC(C)C)C(=O)N[C@@H](CC(C)C)C(=O)N[C@H](C(=O)N3CCCCC3)CC(=O)N(C)[C@H](C)C(=O)N(C)[C@@H](CC(C)C)C(=O)N[C@@H](CC(C)C)C(=O)N(C)[C@@H](CC(C)C)C(=O)N[C@@H]([C@@H](C)O)C(=O)N2C1` [pd371] ([dNMeA][NMeL]L[NMeL]T[Hyp](Et)[NMeL]I[NMeL]LD-Piperidide; lactam N-11) had a Papp A→B at 180 min of 3.4 ×10⁻⁶ cm/s.

For the compound `CC(C)C[C@H]1C(=O)N[C@@H](COC(C)(C)C)C(=O)N(C)[C@@H](Cc2ccccc2)C(=O)N(C)[C@@H](C)C(=O)N[C@H](C(=O)N2CCCCC2)CC(=O)N[C@H](C(C)C)C(=O)N(C)[C@@H](CC(C)C)C(=O)N[C@@H](Cc2ccc(C(F)(F)F)cc2)C(=O)N(C)[C@@H](CC(C)C)C(=O)N[C@@H]([C@@H](C)O)C(=O)N(C)CC(=O)N1C` [pd138] ([dV][NMeL][Phe(4-CF3)][NMeL]T[Sar][NMeL]S(tBu)[NMeF][NMeA]D-Piperidide; lactam N-11), where the note is “Caco-2, Caco-2 (cm/sec)”, the Papp A→B at 180 min was determined as 2.6 ×10⁻⁶ cm/s.

As for `CC(C)C[C@H]1C(=O)N[C@@H](COC(C)(C)C)C(=O)N(C)[C@@H](Cc2ccccc2)C(=O)N(C)[C@@H](CC(C)C)C(=O)N(C)[C@H](C(=O)N2CCCCC2)CC(=O)N(C)[C@H](C)C(=O)N(C)[C@@H](Cc2cccc(Cl)c2)C(=O)N[C@@H](C(C)C)C(=O)N(C)[C@@H](C(C)C)C(=O)N[C@@H]([C@@H](C)O)C(=O)N(C)CC(=O)N1C` [pd168] ([dNMeA][NMePhe(3-Cl)]V[NMeV]T[Sar][NMeL]S(tBu)[NMeF][NMeL][NMeD]-Piperidide; lactam N-11), the Papp A→B at 180 min (Caco-2, Caco-2 (cm/sec)) came out at 2.3 ×10⁻⁶ cm/s.
